Measurements taken from patent US20250205339A1, “FORMULATION HAVING IMPROVED ABSORBABILITY OF LOW-SOLUBLE AND/OR LOW-MEMBRANE-PERMEABLE DRUG” (MEDRx Co., Ltd., priority 2022, published 2025).
Values after ≈ are worked out from the molar mass of the structure shown. Read-outs that look alike come from different tables or passages of the source.

Experiments:
Caco-2 cells [1] = test system: Caco-2 cells
Description: In order to study an ionic liquid for enhancing the intestinal absorption effect of a drug with low solubility and/or low permeability, various types of ionic liquids were prepared and the permeability of a drug with low solubility and/or low permeability in compositions comprising the prepared ionic liquid and the drug was evaluated. Specifically, the permeability of a drug was evaluated by the Caco-2 cell membrane permeation assay according to the following procedures for compositions comprising VZ185, which is PROTAC, used as a model drug with low solubility and/or low permeability and each ionic liquid.
Sodium hydroxide (0.4 g) was dissolved in water (100 mL) to prepare 0.1N NaOH solution. MES (2-morpholinoethanesulfonic acid, 1.493 g) and D-glucose (2.453 g) were dissolved in HBSS (+) (free of phenol red) (600 mL), the solution was adjusted to pH 6.5 with 0.1N NaOH solution, and then HBSS (+) (free of phenol red) was further added and adjusted to 700 mL. The solution was sterilized by filtration through 0.22 μm membrane filter to prepare Transport Buffer (A).
HEPES (1.192 g), D-glucose (1.752 g) and BSA (1.25 g) were then dissolved in HBSS (+) (free of phenol red) (400 mL), the solution was adjusted to pH 7.4 with 0.1N NaOH solution, and then HBSS (+) (free of phenol red) was further added and adjusted to 500 mL. The solution was sterilized by filtration through 0.22 μm membrane filter to prepare Transport Buffer (B). • (2) Preparation of Sample Solution
VZ185 (1.5 mg) was mixed with 1% TWEEN 80 (1.5 mL) to 1 mg/ml of VZ185 solution. Each organic acid (0.05 mmol) which is an anion ingredient and each cationic lipid (0.05 mmol) which is a cation ingredient were mixed with Transport Buffer (A) (4.98 mL) to prepare an ionic liquid composition comprising 10 mM each of the ingredients.
1 mg/mL of VZ185 solution (25 μL) and the ionic liquid composition or control composition (475 μL) were mixed to prepare 50 μg/mL of a drug-ionic liquid composition or a drug-control composition. […]

[2] = Parallel Artificial Membrane Permeation Assay (PAMPA); assay type: in vitro ADME; conditions: Examples 3 and 4, FIG. 1-3; isostearic acid-DODMA, isostearic acid-DODAP, oleic acid-DODMA (5 mM each ingredient); control PBS
Description: In this assay, VZ185 and BI-3663 were used as a drug with low solubility and/or low permeability, and isostearic acid-DODMA, isostearic acid-DODAP and oleic acid-DODMA were used as an ionic liquid. As the control, PBS was used.
Specifically, the permeability of the drugs was evaluated by Parallel Artificial Membrane Permeability Assay-Skin Kit (BioAssay Systems) according to the following procedures. • (1) Preparation of Phosphate Buffer Solution (PBS)
One tablet of Phosphate Buffered Saline Tablet (Sigma) was dissolved in 200 mL of water to prepare PBS. • (2) Preparation of Sample Solution
Also, PBS (475 μL) was mixed with 1 mg/mL of VZ185 solution (25 μL) to prepare 50 μg/mL of a drug-control solution as the control.
4% Lecithin/dodecane solution (5 μL) was then added into each donor well and allowed to stand. PBS (300 μL) was added into each acceptor well and 50 μg/mL of the drug-ionic liquid composition (200 μL) was added into each donor well, and the mixture was incubated in a thermostatic bath at 37° C. […] The sample solution of BI-3663 was prepared according to the same procedure.

[3] = cited from earlier work
Caco-2 cells [4] = test system: Caco-2 cells; remark: listed apart in the source
Caco-2 cells [5] = experiment: Cell membrane integrity by Trans-Epithelial Electrical Resistance (TEER); conditions: Example 1; Caco-2 monolayer exposed to VZ185 50 μg/mL with 10 mM ionic liquid or control composition (5 mM where labelled); standard value >1000Ω
Caco-2 cells [6] = experiment: Cell membrane integrity by permeability of Lucifer Yellow; conditions: Example 1; after VZ185 permeation test with 10 mM ionic liquid or control composition (5 mM where labelled); 60 min; standard value <1%
Caco-2 cells [7] = test system: Caco-2 cells; remark: listed apart in the source

## COc1cc(C(=O)NCCOCCOCCOCCC(=O)Nc2cccc3c2C(=O)N(C2CCC(=O)NC2=O)C3=O)ccc1Nc1ncc(C(F)(F)F)c(Oc2cccc3c2C(=O)CC3)n1 (stereo not shown) [BI-3663]
Caco-2 cells [1]
  absorbability of BI-3663 by use of the ionic liquids: remarkably improved
[2]
  absorbability of the drug by the PAMPA with ionic liquids: remarkably improved
[3]
  Solubility: <1 µg/mL

## CC(O)C(=O)O (stereo not shown) [Lactic acid, lactic acid]
Caco-2 cells [4]; human, 10 mM
  TEER: 550 Ω

## O=C([O-])CCCCCCCNC(=O)c1ccccc1O.[Na+] [SNAC, salcaprozate sodium]
Caco-2 cells [5]
  TEER: 210 Ω
Caco-2 cells [6]
  Lucifer Yellow (%): 4.3%

## CCCCCCCC/C=C\CCCCCCCC(=O)[O-].[Na+] [Sodium oleate, sodium oleate]
Caco-2 cells [5]
  TEER: 100 Ω

## COc1cc(-c2cn(C)c(=O)c3cnccc23)cc(OC)c1CN1CCN(CCCCCOc2cc(-c3scnc3C)ccc2CNC(=O)[C@@H]2C[C@@H](O)CN2C(=O)[C@@H](NC(=O)C2(F)CC2)C(C)(C)C)CC1 [VZ185]
Caco-2 cells [1]
  absorbability of VZ185 by use of the ionic liquids: remarkably improved
[2]
  absorbability of the drug by the PAMPA with ionic liquids: remarkably improved
[3]
  Solubility: 85 µg/mL (≈ 85.4 µM)

## c1ccc(-c2ccc(C(c3ccccc3)n3ccnc3)cc2)cc1 (stereo not shown) [bifonazole]
Caco-2 cells [1]
  absorbability of bifonazole by use of the ionic liquid: remarkably improved
[2]
  absorbability of the drug by the PAMPA with ionic liquids: remarkably improved

## Oleic acid-Arginine
Caco-2 cells [4]
  TEER: 3560 Ω
Caco-2 cells [7]
  Lucifer Yellow (%): 0.1%

## Oleic acid-Trometamol
Caco-2 cells [4]
  TEER: 4750 Ω
Caco-2 cells [7]
  Lucifer Yellow (%): 0.1%
